# Assays:
# Mus musculus [1] = experiment: Anticonvulsant activity in Swiss Albino mouse model of maximal electroshock-induced seizure assessed as protection against seizure by measuring suppression of hind limb extension at 30 mg/kg, ip pretreated for 30 mins before seizure stimulation and measured after 0.5 hrs by MES test relative to control; type: functional; details: time 60 min, 1 h
# Mus musculus [2] = experiment: Anticonvulsant activity in Swiss Albino mouse model of maximal electroshock-induced seizure assessed as protection against seizure by measuring suppression of hind limb extension at 30 mg/kg, po pretreated for 30 mins before seizure stimulation and measured after 1 hrs by MES test relative to control; type: functional; details: time 1.5 hrs
# [3] = Renal toxicity in Wistar rat assessed as calcium level at 100 mg/kg, po for 14 days (reference value: 10.3 +/- 1.8 mg/dL) by kidney function test; type: organism-based; details: in vivo, 336 h, time 14 day
# Mus musculus [4] = experiment: Anticonvulsant activity in Swiss Albino mouse model of maximal electroshock-induced seizure assessed as protection against seizure by measuring suppression of hind limb extension at 30 mg/kg, po pretreated for 30 mins before seizure stimulation and measured after 4 hrs by MES test relative to control; type: functional; details: time 4.5 hrs
# [5] = Renal toxicity in Wistar rat assessed as creatinine level at 100 mg/kg, po for 14 days (reference value: 0.75 +/- 0.1 mg/dL) by kidney function test; type: organism-based; details: in vivo, 336 h, time 14 day
# [6] = Renal toxicity in Wistar rat assessed as phosphorus level at 100 mg/kg, po for 14 days (reference value: 9.4 +/- 2.0 mg/dL) by kidney function test; type: organism-based; details: in vivo, 336 h, time 14 day
# Mus musculus [7] = experiment: Anticonvulsant activity in Swiss Albino mouse assessed as protection against seizure at 30 mg/kg, ip measured after 3 hrs by sc-PTZ seizure test relative to control; type: functional
# [8] = Hepatotoxicity in Wistar rat assessed as total protein level at 100 mg/kg, po for 14 days (reference value: 6.35 +/- 0.46 g/dL) by liver function test; type: toxicity, organism-based; details: in vivo, 336 h, time 14 day
# Mus musculus [9] = experiment: Anticonvulsant activity in Swiss Albino mouse assessed as protection against seizure at 100 mg/kg, ip measured after 3 hrs by sc-PTZ seizure test relative to control; type: functional
# Carbonic anhydrase 9 = Carbonic anhydrase 9 (Homo sapiens, UniProt Q16790); experiment: Inhibition of recombinant human carbonic anhydrase 9 by stopped-flow CO2 hydration assay
# Mus musculus [10] = experiment: Anticonvulsant activity in Swiss Albino mouse model of maximal electroshock-induced seizure assessed as protection against seizure by measuring suppression of hind limb extension at 100 mg/kg, ip pretreated for 30 mins before seizure stimulation and measured after 3 hrs by MES test relative to control; type: functional; details: 0.5 h
# [11] = Hematological toxicity in Wistar rat assessed as Hb level at 100 mg/kg, po for 14 days (reference value: 12.7 +/- 1.5 g/dL); type: organism-based; details: in vivo, 336 h, time 14 day
# [12] = Hematological toxicity in Wistar rat assessed as platelet count level at 100 mg/kg, po for 14 days (reference value: 698 +/- 156 10^3/mm3); type: organism-based; details: in vivo, 336 h, time 14 day
# Mus musculus [13] = experiment: Anticonvulsant activity in Swiss Albino mouse assessed as protection against seizure at 100 mg/kg, ip measured after 0.5 hrs by sc-PTZ seizure test relative to control; type: functional
# [14] = Hepatotoxicity in Wistar rat assessed as SGOT level at 100 mg/kg, po for 14 days (reference value: 59.9 +/- 11 U/L) by liver function test; type: toxicity, organism-based; details: in vivo, 336 h, time 14 day
# [15] = Hepatotoxicity in Wistar rat assessed as total bilirubin level at 100 mg/kg, po for 14 days (reference value: 0.32 +/- 0.09 mg/dL) by liver function test; type: toxicity, organism-based; details: in vivo, 336 h, time 14 day
# Mus musculus [16] = experiment: Anticonvulsant activity in Swiss Albino mouse model of maximal electroshock-induced seizure assessed as protection against seizure by measuring suppression of hind limb extension at 30 mg/kg, po pretreated for 30 mins before seizure stimulation and measured after 0.25 hrs by MES test relative to control; type: functional; details: 0.5 h
# Mus musculus [17] = experiment: Anticonvulsant activity in Swiss Albino mouse model of maximal electroshock-induced seizure assessed as protection against seizure by measuring suppression of hind limb extension at 30 mg/kg, ip pretreated for 30 mins before seizure stimulation and measured after 6 hrs by MES test relative to control; type: functional; details: time 6.5 hrs
# [18] = Hematological toxicity in Wistar rat assessed as eosinophils level at 100 mg/kg, po for 14 days (reference value: 2.3 +/- 1.2%); type: organism-based; details: in vivo, 336 h, time 14 day
# [19] = Neurotoxicity in Swiss Albino mouse by rotarod test at 30 mg/kg. ip measured up to 120 mins by rotarod test; type: toxicity, organism-based; details: in vivo, 2 h
# [20] = Renal toxicity in Wistar rat assessed as K+ level at 100 mg/kg, po for 14 days (reference value: 4.82 +/- 0.3 mequiv/L) by kidney function test; type: organism-based; details: in vivo, 336 h, time 14 day
# [21] = Hematological toxicity in Wistar rat assessed as neutrophils level at 100 mg/kg, po for 14 days (reference value: 20.8 +/- 5.8%); type: organism-based; details: in vivo, 336 h, time 14 day
# [22] = Hematological toxicity in Wistar rat assessed as TLC level at 100 mg/kg, po for 14 days (reference value: 6.3 +/- 1.4 10^3/ml); type: organism-based; details: in vivo, 336 h, time 14 day
# Mus musculus [23] = experiment: Anticonvulsant activity in Swiss Albino mouse model of maximal electroshock-induced seizure assessed as protection against seizure by measuring suppression of hind limb extension at 30 mg/kg, ip pretreated for 30 mins before seizure stimulation and measured after 1 hrs by MES test relative to control; type: functional; details: time 1.5 hrs
# [24] = Hematological toxicity in Wistar rat assessed as lymphocytes level at 100 mg/kg, po for 14 days (reference value: 74.6 +/- 4.3%); type: organism-based; details: in vivo, 336 h, time 14 day
# Mus musculus [25] = experiment: Anticonvulsant activity in Swiss Albino mouse model of maximal electroshock-induced seizure assessed as protection against seizure by measuring suppression of hind limb extension at 30 mg/kg, po pretreated for 30 mins before seizure stimulation and measured after 2 hrs by MES test relative to control; type: functional; details: time 2.5 hrs
# Mus musculus [26] = experiment: Anticonvulsant activity in Swiss Albino mouse model of maximal electroshock-induced seizure assessed as protection against seizure by measuring suppression of hind limb extension at 30 mg/kg, po pretreated for 30 mins before seizure stimulation and measured after 0.5 hrs by MES test relative to control; type: functional; details: time 60 min, 1 h
# [27] = Hematological toxicity in Wistar rat assessed as RBC level at 100 mg/kg, po for 14 days (reference value: 7.9 +/- 0.94 10^6/mm3); type: organism-based; details: in vivo, 336 h, time 14 day
# Mus musculus [28] = experiment: Anticonvulsant activity in Swiss Albino mouse model of maximal electroshock-induced seizure assessed as protection against seizure by measuring suppression of hind limb extension at 30 mg/kg, ip pretreated for 30 mins before seizure stimulation and measured after 3 hrs by MES test relative to control; type: functional; details: time 3.5 hrs
# [29] = Hematological toxicity in Wistar rat assessed as basophils level at 100 mg/kg, po for 14 days (reference value: 0.3 +/- 0.5%); type: organism-based; details: in vivo, 336 h, time 14 day
# Mus musculus [30] = experiment: Anticonvulsant activity in Swiss Albino mouse model of maximal electroshock-induced seizure assessed as protection against seizure by measuring suppression of hind limb extension at 100 mg/kg, ip pretreated for 30 mins before seizure stimulation and measured after 0.5 hrs by MES test relative to control; type: functional; details: time 60 min, 1 h
# [31] = Renal toxicity in Wistar rat assessed as Na+ level at 100 mg/kg, po for 14 days (reference value: 144 +/- 2.8 mequiv/L) by kidney function test; type: organism-based; details: in vivo, 336 h, time 14 day
smiles,measurement,setting,value
NS(=O)(=O)c1ccc(CNC(=O)CCN2CCN(Cc3ccc4c(c3)OCO4)CC2)cc1,Activity,Mus musculus [1],67%
same,Activity,Mus musculus [2],67%
same,Activity,[3],9.9 mg/dL
same,Activity,Mus musculus [4],50%
same,Activity,[5],0.75 mg/dL
same,Activity,[6],6.8 mg/dL
same,Activity,Mus musculus [7],67%
same,Activity,[8],6.2 g/dL
same,Activity,Mus musculus [9],50%
same,Ki,Carbonic anhydrase 9,104 nM
same,Activity,Mus musculus [10],67%
same,Activity,[11],12.6 g/dL
same,Activity,[12],662.3 10^3/mm3
same,Activity,Mus musculus [13],50%
same,Activity,[14],64.2 U/L
same,Activity,[15],0.38 mg/dL
same,Activity,Mus musculus [16],17%
same,Activity,Mus musculus [17],50%
same,Activity,[18],2.3%
same,Activity,[19],Non-Toxic
same,Activity,[20],4.9 mEq/L
same,Activity,[21],22.3%
same,Activity,[22],7.5 10^3/ml
same,Activity,Mus musculus [23],80%
same,Activity,[24],74%
same,Activity,Mus musculus [25],67%
same,Activity,Mus musculus [26],50%
same,Activity,[27],7.7 10^6/mm3
same,Activity,Mus musculus [28],67%
same,Activity,[29],0.16%
same,Activity,Mus musculus [30],83%
same,Activity,[31],144 mEq/L

# From ChEMBL document CHEMBL4680105, “Discovery of Benzenesulfonamide Derivatives as Carbonic Anhydrase Inhibitors with Effective Anticonvulsant Action: Design, Synthesis, and Pharmacological Evaluation” (J Med Chem, 2018)
